Measured values: publication PMC3725995 (Bioorganic & medicinal chemistry letters, 2010)
Read-outs that look alike come from different tables or passages of the source.

What was measured:
[1] = molecular target: system LAT1 transporter of the blood–brain barrier (Rattus norvegicus, UniProt Q63016); test: in situ rat brain perfusion: inhibition of L-[14C]-leucine uptake into rat brain; settings: in vivo
system LAT1 transporter = settings: cited from earlier work; for Ki: read-out: Ki for the system L transporter
[2] = cited from earlier work
[3] = cited from earlier work; remark: listed apart in the source
[4] = read-out: Km for system LAT1 transporter

Chain of system LAT1 transporter of the blood–brain barrier (Q63016 whole entry, the tested form may be a part): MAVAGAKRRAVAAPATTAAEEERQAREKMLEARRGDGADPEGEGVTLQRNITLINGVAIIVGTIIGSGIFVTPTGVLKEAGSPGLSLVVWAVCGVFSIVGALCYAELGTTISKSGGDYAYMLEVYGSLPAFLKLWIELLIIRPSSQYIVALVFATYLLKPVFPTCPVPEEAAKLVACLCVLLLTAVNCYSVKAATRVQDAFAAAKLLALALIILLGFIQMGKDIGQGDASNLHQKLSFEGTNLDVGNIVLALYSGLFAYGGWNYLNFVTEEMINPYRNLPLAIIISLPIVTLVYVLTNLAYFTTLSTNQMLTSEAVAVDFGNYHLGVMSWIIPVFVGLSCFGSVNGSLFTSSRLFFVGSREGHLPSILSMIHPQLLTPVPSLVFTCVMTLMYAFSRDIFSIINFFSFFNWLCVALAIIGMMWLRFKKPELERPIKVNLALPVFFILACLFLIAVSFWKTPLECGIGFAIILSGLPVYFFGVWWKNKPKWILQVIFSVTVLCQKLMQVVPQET
Chain of system LAT1 transporter of the blood–brain barrier (Q794F9 whole entry partner, the tested form may be a part): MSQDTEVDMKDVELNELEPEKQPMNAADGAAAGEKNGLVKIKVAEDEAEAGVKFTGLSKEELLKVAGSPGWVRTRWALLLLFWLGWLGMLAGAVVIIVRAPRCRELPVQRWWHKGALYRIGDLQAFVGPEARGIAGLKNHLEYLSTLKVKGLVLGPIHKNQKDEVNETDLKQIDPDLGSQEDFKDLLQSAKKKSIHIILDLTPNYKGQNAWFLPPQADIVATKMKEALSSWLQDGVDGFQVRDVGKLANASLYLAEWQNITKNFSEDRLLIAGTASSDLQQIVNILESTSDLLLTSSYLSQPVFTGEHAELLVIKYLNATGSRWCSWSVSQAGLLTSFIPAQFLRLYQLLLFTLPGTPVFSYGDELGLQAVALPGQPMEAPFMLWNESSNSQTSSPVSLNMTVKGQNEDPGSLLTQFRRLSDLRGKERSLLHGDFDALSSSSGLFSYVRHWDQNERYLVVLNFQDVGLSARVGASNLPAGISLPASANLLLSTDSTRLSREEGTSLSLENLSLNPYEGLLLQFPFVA

NC1(C(=O)O)CC2CC1c1cc(N(CCCl)CCCl)ccc12 (mixture of isomers) [compound 7, (±)-2-endo-amino-bis(2-chloroethyl)-7′-aminobenzobicyclo[2.2.1]heptane-2-exo-carboxylic acid]
times lower affinity for the system LAT1 transporter than 5c [1]: 25 times

NC1(C(=O)O)CCc2c(cccc2N(CCCl)CCCl)C1 (centres unmarked) [5a]
Ki (system LAT1 transporter): ~25 µM | times lower affinity for the system LAT1 transporter than 5c [1]: 100 times

N[C@@H](Cc1ccc(N(CCCl)CCCl)cc1)C(=O)O [compound 2, Melphalan, reference compound]
Km (system LAT1 transporter; read-out: Km for system LAT1, estimated): 90 to 150 µM

NC1(C(=O)O)CC2CCC1C2 (centres unmarked) [compound 4, reference compound]
affinity for the system LAT1 transporter (system LAT1 transporter; in vivo): good affinity

NC1(C(=O)O)CCc2ccccc2C1 (racemic) [compound 3, DL-2-amino-1,2,3,4,-tetrahydronaphthoic acid, reference compound]
Km (system LAT1 transporter; [4]): 7.1 µM

NC1(C(=O)O)CCc2ccc(N(CCCl)CCCl)cc2C1 (centres unmarked) [5c]
Vmax of uptake into brain by blood–brain barrier system LAT1 transporter (system LAT1 transporter): 0.26 nmol/min/g | Ki (system LAT1 transporter): ~0.2 µM | Km (system LAT1 transporter; [4]): 0.19 µM | myelosuppressive activity compared to melphalan [2]: reduced | in vitro antitumor activity compared to melphalan [3]: enhanced
